Reference: publication PMC8868518, “Exploring Titanium(IV) Complexes as Potential Antimicrobial Compounds” (Antibiotics, 2022)
Structures can show the parent of a compound that is named as a salt. Where two headings read alike, the source gives them in different places.

What was measured:
[1] = system: S. aureus MRSA (ATCC 43300); assay: CO-ADD antibacterial assay, growth inhibition (OD600); format: cell-based, Staphylococcus aureus
Experimental: (§1) Dry compounds ranging from 1–2 mg were weighed into properly labeled Eppendorf tubes and sealed with parafilm. The compounds were used as received by the CO-ADD. For the screenings, most compounds were dissolved to a stock concentration of 10 mg/mL in DMSO. K2[Ti(Citrate)3], Na3Citrate, and K2[TiO(Oxalate)2] were dissolved in warm water. […] Samples were diluted in water to a final testing concentration of 32 µg/mL while keeping the final co-solvent concentration to a maximum of 0.5%. Where applicable, compounds were serially diluted 1:2 fold eight times. Each sample concentration was prepared in 384-well plates, non-binding surface plate (NBS; Corning 3640) for each bacterial/fungal strain, tissue-culture treated (TC-treated; Corning 3712/3764), black for mammalian cell types and polypropylene 384-well (PP; Corning 3657) for hemolysis assays, all in duplicate (n = 2), and keeping the final DMSO concentration to a maximum of 0.5%. All sample preparation was conducted using liquid handling robots.
(§2) For the bacterial assays, four Gram-negative bacteria (E. coli (ATCC 25922, Manassas, VA, USA); K. pneumoniae (ATCC 700603), A. baumannii; (ATCC 19606), and P. aeruginosa (ATCC 27853) and the Gram-positive bacteria (S. aureus MRSA (ATCC 43300) were used. Each strain was cultured in cation-adjusted Mueller Hinton broth (CAMHB; Bacto Laboratories 212322, Mount Pritchard, Australia) at 37 °C overnight. A sample of each culture was then diluted 40-fold in fresh CAMHB and incubated at 37 °C for 1.5–3 h. The resultant mid-log phase cultures were diluted with CAMHB (CFU/mL measured by OD600), then added to each well of the compound-containing plates (384-well non-binding surface (NBS) plates; Corning CLS3640, Millipore Sigma, Burlington, MA, USA), giving a cell density of 5 × 10^5 CFU/mL and a total volume of 50 µL. Plates were covered and incubated at 37 °C for 18 h without shaking. Inhibition of bacterial growth was determined by measuring absorbance at 600 nm (OD600) with a Tecan M1000 Pro monochromator plate reader, using media-only as negative control and bacteria without inhibitors as a positive control. […] Colistin sulfate (Sigma C4461) and vancomycin HCl (Sigma 861987) were used as internal controls on each plate for Gram-negative and Gram-positive bacteria, respectively.

[2] = system: A. baumannii (ATCC 19606); assay: as above; format: cell-based, Acinetobacter baumannii; settings: up to 32 μg/mL
Experimental: as §1, §2

E. coli (ATCC 25922) = assay: as above; format: cell-based, Escherichia coli; settings: up to 32 μg/mL
Experimental: as §1, §2

[3] = system: K. pneumoniae (ATCC 700603); assay: as above; format: cell-based, Klebsiella pneumoniae; settings: up to 32 μg/mL
Experimental: as §1, §2

[4] = system: P. aeruginosa (ATCC 27853); assay: as above; format: cell-based, Pseudomonas aeruginosa; settings: up to 32 μg/mL
Experimental: as §1, §2

C. albicans (ATCC 90028) = assay: CO-ADD antifungal assay, growth inhibition (OD630); format: cell-based, Candida albicans; settings: up to 32 μg/mL
Experimental: (§3) The compounds were used as received by the CO-ADD. For the screenings, most compounds were dissolved to a stock concentration of 10 mg/mL in DMSO. K2[Ti(Citrate)3], Na3Citrate, and K2[TiO(Oxalate)2] were dissolved in warm water. [Cu(Deferasirox)(H2O)]2 was dissolved in pyridine after its solubility was determined to be excellent in pyridine due to coordination of the solvent to the metal producing [Cu(Deferasirox)(pyridine)]2 in situ. […] Each sample concentration was prepared in 384-well plates, non-binding surface plate (NBS; Corning 3640) for each bacterial/fungal strain, tissue-culture treated (TC-treated; Corning 3712/3764), black for mammalian cell types and polypropylene 384-well (PP; […] All sample preparation was conducted using liquid handling robots. For the fungal assays, the fungi (C. albicans (ATCC 90028) and C. neoformans) (ATCC 208821) were used. Both fungi (yeast) strains were cultured for 3 days on Yeast Extract-Peptone Dextrose (YPD; Becton Dickinson 242720, Thermo Fisher Scientific, Waltham, MA, USA) agar at 30 °C. A yeast suspension of 1 × 10^6 to 5 × 10^6 CFU/mL (as determined by OD530) was prepared from five colonies from the agar plates, subsequently diluted with Yeast Nitrogen Base media (YNB; Becton Dickinson 233520, Thermo Fisher Scientific, Waltham, MA, USA), and added to each well of the compound-containing plates (384-well plates, NBS; Corning CLS3640) giving a final cell density of 2.5 × 10^3 CFU/mL and a total volume of 50 μL. Plates were covered and incubated at 35 °C for 36 h without shaking. […] Sigma R7017) and incubation at 35 °C for 2 h, using media-only as a negative control and fungi without inhibitors as a positive control. […] Fluconazole (Sigma F8929) was used as an internal control on each plate for both strains.

[5] = system: C. neoformans (ATCC 208821); assay: CO-ADD antifungal assay, growth inhibition (resazurin, OD600-570); format: cell-based, Cryptococcus neoformans; settings: up to 32 μg/mL
Experimental: as §3

[6] = system: HEK293 ATCC CRL-1573 human embryonic kidney cells; assay: CO-ADD cytotoxicity assay (resazurin); format: cell-based; settings: at the maximum concentration tested
Experimental: The compounds were used as received by the CO-ADD. For the screenings, most compounds were dissolved to a stock concentration of 10 mg/mL in DMSO. K2[Ti(Citrate)3], Na3Citrate, and K2[TiO(Oxalate)2] were dissolved in warm water. [Cu(Deferasirox)(H2O)]2 was dissolved in pyridine after its solubility was determined to be excellent in pyridine due to coordination of the solvent to the metal producing [Cu(Deferasirox)(pyridine)]2 in situ. […] Each sample concentration was prepared in 384-well plates, non-binding surface plate (NBS; Corning 3640) for each bacterial/fungal strain, tissue-culture treated (TC-treated; Corning 3712/3764), black for mammalian cell types and polypropylene 384-well (PP; […] All sample preparation was conducted using liquid handling robots. HEK293 ATCC CRL-1573 human embryonic kidney cells were counted manually in a Neubauer hemocytometer and added to compound-containing plates (384-well plates, tissue culture-treated (TC); […] Life Technologies 11995-073) with 10% FBS (GE SH30084.03).

MRC-5 cells [7] = settings: cited from earlier work
MRC-5 cells [8] = assay: MRC-5 cell viability, dose-response treatment, MTT assay; format: cell-based, human; settings: MRC-5 cells, MTT, 72 h, pH 7.4, n = 6, this work
Experimental: A thawed stock of MRC-5 cells was washed with 1X PBS and resuspended in phenol red DMEM media (supplemented with 10% FBS and 1% of penicillin-streptomycin) and then seeded in a 100 mm × 20 mm (complete, O.D. x H) petri dish and grown in a 5% (v/v) CO2 humidified atmosphere at 37 °C. At least three passages were performed to ensure the integrity of the cells. After this point, cells were collected, thoroughly washed with 1X PBS, and then resuspended in phenol red-free DMEM (supplemented with 10% FBS, 1% Streptomycin/Penicillin, and 2.4 mM L-glutamine) at a 2.0 × 10^5 cells/mL concentration. Approximately 100 µL of the cell solution was seeded into wells of several 96-well plates to begin the MTT assay, which was performed in the 5% (v/v) CO2 humidified atmosphere at 37 °C. At least one lane of wells in each plate was supplied media without cells as a control. […] Most of the compounds were dissolved in 1X PBS buffer at pH 7.4. […] Titanocene dichloride was prepared as a fresh stock solution in DMSO and then diluted in 0.1 M NaCl (aq) instead of 1X PBS (to minimize hydrolysis induced precipitation) to the desired concentration while maintaining a constant 1% (v/v) DMSO background (0.5% DMSO after mixing with the well media). A control of cells treated with media containing 1% (v/v) DMSO was included in the study. The titanocene solutions were used within an hour of preparation in the final cell solution. […] At 3 h before a total of 72 h of incubation with the compounds, the cells were treated with 25 µL of 9 mg/mL MTT prepared in 1X PBS and sterile-filtered. Upon completion of the three hours, 50 µL of 10% (w/v) SDS (prepared in 0.1 M Tris buffer at pH 11) was added to solubilize the purple formazan product crystals and left overnight in the incubator. Control wells in the plates consisted of: (1) Untreated cells + MTT as the measure of 100% viable cell growth in the media and (2) Media with no cells + MTT as the measure of zero cells in the media. Two sets of compounds could be tested per plate. The plates were read at the wavelength of 570 nm (absorbance of the formazan product at pH 10.0) and 800 nm (background control) using a Tecan plate reader. The absorbance of all wells was compared to the absorbance of the untreated cells with the MTT set as the 100% viable cell standard and the absorbance of the zero cell control set as the 0% viable cell standard. […] Nonlinear regression in Origin 8.5 was utilized to fit the growth curves using the pharmacology dose–response equation to determine the half-maximal inhibitory concentration (IC50) and the corresponding standard deviation. All samples were tested six times.

[9] = cited from earlier work
[10] = predicted or measured MIC, lowest concentration with ≥75% growth inhibition, 0.25-32 μg/mL, 18 h
[11] = predicted or measured MIC, ≥75% growth inhibition
[12] = predicted or measured MIC, ≥75% growth inhibition, 36 h

| Compound | MIC S. aureus (MRSA) [1, 10] | Dmax S. aureus (MRSA), maximum % inhibition ([1]; up to 32 μg/mL) | MIC A. baumannii [2, 11] | Dmax A. baumannii, maximum % inhibition [2] | MIC E. coli (E. coli (ATCC 25922); [11]) | Dmax E. coli, maximum % inhibition (E. coli (ATCC 25922)) | MIC K. pneumoniae [3, 11] | Dmax K. pneumoniae, maximum % inhibition [3] | MIC P. aeruginosa [4, 11] | Dmax P. aeruginosa, maximum % inhibition [4] | MIC C. albicans (C. albicans (ATCC 90028); [12]) | Dmax C. albicans, maximum % inhibition (C. albicans (ATCC 90028)) | MIC C. neoformans [5, 12] | Dmax C. neoformans, maximum % inhibition [5] | further results |
| --- | --- | --- | --- | --- | --- | --- | --- | --- | --- | --- | --- | --- | --- | --- | --- |
| O=C(O)CN(CCN(CC(=O)O)Cc1ccccc1O)Cc1ccccc1O [Compound 5, N,N′-di(o-hydroxybenzyl)ethylenediamine-N,N′-diacetic acid monohydrochloride hydrate, reference compound] |  |  |  |  |  |  |  |  |  |  |  |  |  |  | MIC ([1]; Staphylococcus aureus, predicted or measured MIC, lowest concentration with ≥75% growth inhibition, 0.25-32 μg/mL, 18 h): > 32 µg/mL; Dmax ([1]; Staphylococcus aureus, up to 32 μg/mL, read-out: Dmax S. aureus (MRSA), maximum % inhibition): 24.3%; MIC ([2]; Acinetobacter baumannii, ATCC19606, predicted or measured MIC, ≥75% growth inhibition): > 32 µg/mL; Dmax ([2]; Acinetobacter baumannii, ATCC19606, read-out: Dmax A. baumannii, maximum % inhibition): 68.3%; MIC (E. coli (ATCC 25922); Escherichia coli, ATCC25922, predicted or measured MIC, ≥75% growth inhibition): > 32 µg/mL; Dmax (E. coli (ATCC 25922); Escherichia coli, ATCC25922, read-out: Dmax E. coli, maximum % inhibition): 51.6%; MIC ([3]; Klebsiella pneumoniae, ATCC700603, predicted or measured MIC, ≥75% growth inhibition): > 32 µg/mL; Dmax ([3]; Klebsiella pneumoniae, ATCC700603, read-out: Dmax K. pneumoniae, maximum % inhibition): 52.9%; MIC ([4]; Pseudomonas aeruginosa, ATCC27853, predicted or measured MIC, ≥75% growth inhibition): > 32 µg/mL; Dmax ([4]; Pseudomonas aeruginosa, ATCC27853, read-out: Dmax P. aeruginosa, maximum % inhibition): 69%; MIC (C. albicans (ATCC 90028); Candida albicans, ATCC90028, predicted or measured MIC, ≥75% growth inhibition, 36 h): > 32 µg/mL; Dmax (C. albicans (ATCC 90028); Candida albicans, ATCC90028, read-out: Dmax C. albicans, maximum % inhibition): 3.5%; MIC ([5]; Cryptococcus neoformans, ATCC208821, predicted or measured MIC, ≥75% growth inhibition, 36 h): > 32 µg/mL; Dmax ([5]; Cryptococcus neoformans, ATCC208821, read-out: Dmax C. neoformans, maximum % inhibition): -17.5%; inhibition of HEK293 cell proliferation [6]: ~50%; IC50 ± SD (µg/mL) (MRC-5 cells [7]): >>44.3 µg/mL; IC50 (MRC-5 cells [7]; read-out: IC50 ± SD): > 100 µM |
| [Cl-].[Cl-].[Ti+4].c1cc[cH-]c1.c1cc[cH-]c1 [Compound 13, Bis(cyclopentadienyl)titanium(IV) dichloride, reference compound] | >32 µg/mL | 51.55% | >32 µg/mL | 15.78% | >32 µg/mL | 23.76% | >32 µg/mL | 16.65% | >32 µg/mL | 16.01% | >32 µg/mL | 16.15% | >32 µg/mL | 6.5% | IC50 ± SD (µg/mL) (MRC-5 cells [8]): >>24.9 µg/mL; IC50 (MRC-5 cells [8]; read-out: IC50 ± SD): > 100 µM; solution stability (in words) ([9]; pH 7.4): extremely hydrolysis prone |
| Ti(BHPT)2 [Compound 9] | >32 µg/mL | 7.82% | >32 µg/mL | 1.55% | >32 µg/mL | −0.56% | >32 µg/mL | 6.35% | >32 µg/mL | 10.27% | >32 µg/mL | 4.27% | >32 µg/mL | −1.7% | activity against MRSA (in words) ([1]; CO-ADD screen, 32 μg/mL): inactive; IC50 (MRC-5 cells [7]; approximated relative IC50, compound inhibits proliferation at a maximum of 25%, read-out: IC50 (µM), approximated relative IC50): ~2.4 µM; IC50 (µg/mL), approximated relative IC50 (MRC-5 cells [7]; approximated relative IC50, compound inhibits proliferation at a maximum of 25%): ~1.5 µg/mL; solution stability (in words) ([9]; pH 4): highly stable in solution |
